In US7927639B2, “Mixture of Propionibacterium jensenii and Lactobacillus sp. with antimicrobial activities for the use as natural preservation system” (Eidgenossische Technische Hochschule Zurich, priority 2001, dated 2011):

Key:
Assay type in all cases: cell-based
[1] = system: Zygosaccharomyces bailii 1-48/1; experiment: Antifungal activity in agar plates; settings: storage 21 days at 6° C.; cultures incorporated in agar plates at 10^8 cfu/ml (SM17, SM39 10^7 cfu/ml); Ka-Sorbat 1 g/l; spot-inoculation with 10^6 cfu/ml
Procedure: (§1) Agar plates were prepared, supplemented with Propionbacterium jensenii SM11 or an antimicrobial Lactobacillusor a combination of both. The cultures were previously grown separately for 72 h at 32° C. in supplemented whey permeate (SWP1), centrifugated, washed once and resuspended (1:1) in 0.85% NaCl and then serially diluted in dilution-buffer (0.85% NaCl, 0.1% peptone). Portions of 20 ml of agar were prepared with 10% of each dilution to give a final level of 10^5, 10^6, 10^7 and 10^8 cfu/ml. Agar plates were poured and after solidifying, portions of approximately 2-5 μl of broth cultures of the indicator strains were spot inoculated on the plates. YM agar was used for yeasts and moulds and BHI agar for bacteria. Triplex of the agar plates were stored at 6° C., 12° C. and 25° C. for up to 4 weeks and the growth of indicator organisms was controlled weekly for 6° C. or daily for 12° C. and 25° C. As a control, agar plates without supplementation of lactobacilli and propionibacteria were prepared as well as agar plates with an addition of 1 g/l Ka-Sorbat (EU-Richtlinie, Nr. 95/2/HG).
(§2) A total of 18 lactobacilli were tested for their antifungal activities alone or in combination with the high-antifungal Propionibacterium jensenii SM11. Therefore, the strains were incorporated, after centrifugation and a washing step in concentrations from 10^5 to 10^8 cfu/ml in YM agar plates on which the fungi listed in Table 1 were spotted in corresponding levels from 10^1 to 10^7 cfu/ml. The plates were stored in different batches at 6° C., 12° C. and 25° C. The growth of yeasts was controlled weekly or daily, respectively. […] A cell number of 10^8 cfu/ml of the Lactobacillus-strain and 10^8 cfu/ml of the Propionibacterium-strain was necessary for high inhibitory activities. Table 4 indicates five examples of the antifungal activities observed at 6° C. with a concentration of 10^8 cfu/ml (10^7 cfu/ml for Lactobacillus plantarum SM17) against spot-inoculated yeasts in a density of 10^6 cfu/ml and against spot-inoculated 3-day cultures of moulds.

Candida reukaufii 4-73/4 = experiment: Antifungal activity in agar plates; settings: storage 21 days at 6° C.; cultures incorporated in agar plates at 10^8 cfu/ml (SM17, SM39 10^7 cfu/ml); Ka-Sorbat 1 g/l; spot-inoculation with 10^6 cfu/ml
Procedure: as §1, §2

Candida krusei 3-69/2 = experiment: Antifungal activity in agar plates; settings: storage 21 days at 6° C.; cultures incorporated in agar plates at 10^8 cfu/ml (SM17, SM39 10^7 cfu/ml); Ka-Sorbat 1 g/l; spot-inoculation with 10^6 cfu/ml
Procedure: as §1, §2

Candida valida 1-48/8 = experiment: Antifungal activity in agar plates; settings: storage 21 days at 6° C.; cultures incorporated in agar plates at 10^8 cfu/ml (SM17, SM39 10^7 cfu/ml); Ka-Sorbat 1 g/l; spot-inoculation with 10^6 cfu/ml
Procedure: as §1, §2

[2] = system: Sporobolomyces salmonicolor 3-46/2; experiment: Antifungal activity in agar plates; settings: storage 21 days at 6° C.; cultures incorporated in agar plates at 10^8 cfu/ml (SM17, SM39 10^7 cfu/ml); Ka-Sorbat 1 g/l; spot-inoculation with 10^6 cfu/ml
Procedure: as §1, §2

[3] = system: Candida pulcherrima 1-50/13; experiment: Antifungal activity in agar plates; settings: storage 21 days at 6° C.; cultures incorporated in agar plates at 10^8 cfu/ml (SM17, SM39 10^7 cfu/ml); Ka-Sorbat 1 g/l; spot-inoculation with 10^6 cfu/ml
Procedure: as §1, §2

[4] = system: Candida parapsilosis 4-5/1; experiment: Antifungal activity in agar plates; settings: storage 21 days at 6° C.; cultures incorporated in agar plates at 10^8 cfu/ml (SM17, SM39 10^7 cfu/ml); Ka-Sorbat 1 g/l; spot-inoculation with 10^6 cfu/ml
Procedure: as §1, §2

Candida silvicola 4-42/1 = experiment: Antifungal activity in agar plates; settings: storage 21 days at 6° C.; cultures incorporated in agar plates at 10^8 cfu/ml (SM17, SM39 10^7 cfu/ml); Ka-Sorbat 1 g/l; spot-inoculation with 10^6 cfu/ml
Procedure: as §1, §2

Candida sp. 1-50/15 = experiment: Antifungal activity in agar plates; settings: storage 21 days at 6° C.; cultures incorporated in agar plates at 10^8 cfu/ml (SM17, SM39 10^7 cfu/ml); Ka-Sorbat 1 g/l; spot-inoculation with 10^6 cfu/ml
Procedure: as §1, §2

Candida magnoliae 1-35/1 = experiment: Antifungal activity in agar plates; settings: storage 21 days at 6° C.; cultures incorporated in agar plates at 10^8 cfu/ml (SM17, SM39 10^7 cfu/ml); Ka-Sorbat 1 g/l; spot-inoculation with 10^6 cfu/ml
Procedure: as §1, §2

fungi listed in Table 1 = experiment: Antifungal activities in agar plates (overall statements); settings: YM agar plates stored at 6° C.
Procedure: as §1
A total of 18 lactobacilli were tested for their antifungal activities alone or in combination with the high-antifungal Propionibacterium jensenii SM11. […]

C/C=C/C=C/C(=O)[O-].[K+] [Ka-Sorbat]
++ (++ strong colony (≈0% inhibition)): colony growth of Candida reukaufii 4-73/4 (Candida reukaufii 4-73/4) | colony growth of Candida pulcherrima 1-50/13 [3] | colony growth of Candida silvicola 4-42/1 (Candida silvicola 4-42/1) | colony growth of Candida sp. 1-50/15 (Candida sp. 1-50/15) | colony growth of Candida magnoliae 1-35/1 (Candida magnoliae 1-35/1)
− (− no colony (≈100% inhibition)): colony growth of Zygosaccharomyces bailii 1-48/1 [1] | colony growth of Candida krusei 3-69/2 (Candida krusei 3-69/2) | colony growth of Candida valida 1-48/8 (Candida valida 1-48/8) | colony growth of Sporobolomyces salmonicolor 3-46/2 [2] | colony growth of Candida parapsilosis 4-5/1 [4]
weaker inhibitory activity: antifungal (inhibitory) activity in agar plates, in words (fungi listed in Table 1)
